Test: Metabolic stability in pooled human liver microsomes (half-life)
Assay type: in vitro ADME
Settings: 37° C., 1 μM test compound
Procedure: The metabolic stability of the compounds according to the invention may be investigated as follows:
The metabolic degradation of the test compound is assayed at 37° C. with pooled human liver microsomes. The final incubation volume of 100 μl per time point contains TRIS buffer pH 7.6 at room temperature (0.1 M), magnesium chloride (5 mM), microsomal protein (1 mg/mL) and the test compound at a final concentration of 1 μM. Following a short preincubation period at 37° C., the reactions are initiated by addition of beta-nicotinamide adenine dinucleotide phosphate, reduced form (NADPH, 1 mM), and terminated by transferring an aliquot into solvent after different time points. After centrifugation (10000 g, 5 min), an aliquot of the supernatant is assayed by LC-MS/MS for the amount of parent compound. The half-life is determined by the slope of the semi-logarithmic plot of the concentration-time profile.

| SMILES | Half-life t1/2 |
| --- | --- |
| CCc1ccccc1OCC(C)(C)NC(=O)[C@H]1[C@@H]2CNC[C@@H]21.Cl [Example 39] | >130 min |
| Cc1cc(C2CC2)ccc1OCC(C)(C)NC(=O)[C@H]1[C@@H]2CNC[C@@H]21 [Example 65] | >130 min |
| CC(C)(NC(=O)[C@H]1[C@@H]2CNC[C@@H]21)c1n[nH]c2ccccc12 [Example 94] | >130 min |

Further lines, results first:

| Half-life t1/2 | SMILES |
| --- | --- |
| >130 min | Cc1cccc2c(C(C)(C)NC(=O)[C@H]3[C@@H]4CNC[C@@H]43)n[nH]c12 [Example 93] |
| >130 min | CC(C)(NC(=O)[C@H]1[C@@H]2CNC[C@@H]21)c1n[nH]c2c(C(F)(F)F)cccc12 [Example 110] |

Reference: patent US10675268B2, “Somatostatin receptor subtype 4 (SSTR4) agonists” (Centrexion Therapeutics Corporation, priority 2013, dated 2020)
